Reference: ChEMBL document CHEMBL5260814, “Design strategies in the prodrugs of HIV-1 protease inhibitors to improve the pharmaceutical properties” (Eur J Med Chem, 2017)
Values after ≈ are worked out from the molar mass of the structure shown.

Columns and labels:
[1] = Solubility of compound; assay type: physicochemical
[2] = Cmax in rat in presence of Ritonavir; assay type: ADME; conditions: in vivo, read-out: Cmax
[3] = AUC in rat in presence of Ritonavir; assay type: ADME; set-up: concentration or dose not given beside the values; conditions: in vivo, read-out: AUC
[4] = Water solubility of compound; assay type: physicochemical
[5] = Stability of compound in PBS at pH 7.4 assessed as half life; assay type: physicochemical
[6] = Stability of compound in PBS at pH 5.5 assessed as half life; assay type: physicochemical
[7] = Stability of compound in PBS at pH 4.9 assessed as half life; assay type: physicochemical
[8] = Stability of compound in PBS buffer at pH 7.3 assessed as half life; assay type: physicochemical
[9] = Metabolic stability in rat liver microsome assessed as half life […]; assay type: ADME; conditions: liver microsomes

Question: With `Cc1cccc(C)c1OCC(=O)N[C@@H](Cc1ccccc1)[C@H](OC(=O)CCC(=O)NCCN1CCCC1)C(=O)N1CSC(C)(C)[C@H]1C(=O)NC(C)(C)C` as the compound, how does the solubility [1] read?
Answer: The solubility was 93.8 mg/mL (≈ 125 mM).

Question: For `Cc1nc(COc2ccc(C[C@H](NC(=O)O[C@H]3CO[C@H]4OCC[C@H]43)[C@@H](CN(CC(C)C)S(=O)(=O)c3ccc4c(c3)OCO4)OC(=O)CONC(=N)N)cc2)cs1`, which Cmax [2] is on record?
Answer: Its Cmax is 460 ng/mL.

Question: What about the AUC [3] of the same compound?
Answer: Its AUC is > 5000 ng·h/mL.

Question: For `CC(C)(C)NC(=O)[C@H]1N(C(=O)[C@@H](OC(=O)COc2ccccc2)[C@@H](N)Cc2ccccc2)CSC1(C)C.Cl`, which solubility [4] is on record?
Answer: The solubility was 21000 µg/mL.

Question: And the half-life [5]?
Answer: The half-life was < 1 min.

Question: What about the half-life [6] of the same compound?
Answer: The half-life was 3.2 min.

Question: What about the half-life [7] of the same compound?
Answer: Its half-life is 24 min.

Question: Which Cmax [2] does the source give for `Cc1nc(COc2ccc(C[C@H](NC(=O)O[C@H]3CO[C@H]4OCC[C@H]43)[C@@H](CN(CC(C)C)S(=O)(=O)c3ccc4c(c3)OCO4)OC(=O)COC(=O)[C@@H](N)CCCCN)cc2)cs1` here?
Answer: The Cmax was 517 ng/mL.

Question: What about the AUC [3] of the same compound?
Answer: Its AUC is 4220 ng·h/mL.

Question: Which solubility [4] does the source give for `CC(C)(C)NC(=O)[C@@H]1CSCN1C(=O)[C@@H](O)[C@H](Cc1ccccc1)NC(=O)COc1ccccc1` here?
Answer: The solubility was 123 µg/mL (≈ 0.246 mM).

Question: With `Cc1cccc(C)c1OCC(=O)N[C@@H](Cc1ccccc1)[C@H](OC(=O)CCC(=O)NCc1ccccn1)C(=O)N1CSC(C)(C)[C@H]1C(=O)NC(C)(C)C` as the compound, how does the solubility [1] read?
Answer: Its solubility is 31.9 mg/mL (≈ 42.8 mM).

Question: With `Cc1ccccc1OCC(=O)N[C@@H](Cc1ccccc1)[C@H](O)C(=O)N1CSC[C@H]1C(=O)NC(C)(C)C` as the compound, how does the solubility [4] read?
Answer: Its solubility is 42 µg/mL (≈ 0.0818 mM).

Question: With `COCCN(CCOC)CC(=O)OCC(=O)O[C@H](CN(CC(C)C)S(=O)(=O)c1ccc2c(c1)OCO2)[C@H](Cc1ccc(OCc2csc(C)n2)cc1)NC(=O)O[C@H]1CO[C@H]2OCC[C@H]21` as the compound, how does the Cmax [2] read?
Answer: The Cmax was 1280 ng/mL.

Question: What about the AUC [3] of the same compound?
Answer: Its AUC is > 4000 ng·h/mL.

Question: Which solubility [4] does the source give for `CC(C)(C)NC(=O)[C@H]1N(C(=O)[C@@H](O)[C@H](Cc2ccccc2)NC(=O)COc2ccccc2)CSC1(C)C` here?
Answer: Its solubility is 47 µg/mL (≈ 0.0891 mM).

Question: With `Cc1cccc(C)c1OCC(=O)N[C@@H](Cc1ccccc1)[C@H](OC(=O)CCCC(=O)NCCN)C(=O)N1CSC(C)(C)[C@H]1C(=O)NC(C)(C)C` as the compound, how does the solubility [1] read?
Answer: Its solubility is 50.3 mg/mL (≈ 70.7 mM).

Question: Which results are given for `CCN(CC)CC(=O)OCC(=O)O[C@H](CN(CC(C)C)S(=O)(=O)c1ccc2c(c1)OCO2)[C@H](Cc1ccc(OCc2csc(C)n2)cc1)NC(=O)O[C@H]1CO[C@H]2OCC[C@H]21`?
Answer: Cmax [2]: 318 ng/mL; AUC [3]: 3690 ng·h/mL

Question: For `CC(C)(C)NC(=O)[C@H]1C[C@@H]2CCCC[C@@H]2CN1C[C@@H](OC(=O)CCCCO[C@H]1O[C@H](CO)[C@@H](O)[C@H](O)[C@@H]1O)[C@H](Cc1ccccc1)NC(=O)[C@H](CC(N)=O)NC(=O)c1ccc2ccccc2n1`, which half-life [8] is on record?
Answer: The half-life was 3000 min.

Question: With `Cc1ccccc1OCC(=O)O[C@H](C(=O)N1CSC[C@H]1C(=O)NC(C)(C)C)[C@@H](N)Cc1ccccc1.Cl` as the compound, how does the solubility [4] read?
Answer: Its solubility is 15000 µg/mL.

Question: What about the half-life [5] of the same compound?
Answer: The half-life was < 1 min.

Question: And the half-life [6]?
Answer: Its half-life is 2.4 min.

Question: And the half-life [7]?
Answer: Its half-life is 19.6 min.

Question: Which half-life [9] does the source give for `CC(C)[C@@H](N)C(=O)N[C@@H](C(=O)O[C@H](CN1C[C@H]2CCCC[C@H]2C[C@H]1C(=O)NC(C)(C)C)[C@H](Cc1ccccc1)NC(=O)[C@H](CC(N)=O)NC(=O)c1ccc2ccccc2n1)C(C)C` here?
Answer: The half-life was 296 min.

Question: For `Cc1cccc(C)c1OCC(=O)N[C@@H](Cc1ccccc1)[C@H](OC(=O)CCCC(=O)NCCN1CCOCC1)C(=O)N1CSC(C)(C)[C@H]1C(=O)NC(C)(C)C`, which solubility [1] is on record?
Answer: Its solubility is 57.1 mg/mL (≈ 73 mM).

Question: Which results are given for `COCCN(C)CC(=O)OCC(=O)O[C@H](CN(CC(C)C)S(=O)(=O)c1ccc2c(c1)OCO2)[C@H](Cc1ccc(OCc2csc(C)n2)cc1)NC(=O)O[C@H]1CO[C@H]2OCC[C@H]21`?
Answer: Cmax [2]: 407 ng/mL; AUC [3]: 4710 ng·h/mL

Question: For `Cc1ccccc1OCC(=O)O[C@H](C(=O)N1CSC(C)(C)[C@H]1C(=O)NC(C)(C)C)[C@@H](N)Cc1ccccc1.Cl`, which solubility [4] is on record?
Answer: Its solubility is 14000 µg/mL.

Question: And the half-life [5]?
Answer: The half-life was < 1 min.

Question: What about the half-life [6] of the same compound?
Answer: The half-life was 2.6 min.

Question: And the half-life [7]?
Answer: The half-life was 20.8 min.

Question: For `Cc1cccc(C)c1OCC(=O)N[C@@H](Cc1ccccc1)[C@H](OC(=O)CCC(=O)NCCN)C(=O)N1CSC(C)(C)[C@H]1C(=O)NC(C)(C)C`, which solubility [1] is on record?
Answer: Its solubility is 77.1 mg/mL (≈ 110 mM).

Question: For `Cc1nc(COc2ccc(C[C@H](NC(=O)O[C@H]3CO[C@H]4OCC[C@H]43)[C@@H](CN(CC(C)C)S(=O)(=O)c3ccc4c(c3)OCO4)OC(=O)COCC(=O)Nc3ccn[nH]3)cc2)cs1`, which Cmax [2] is on record?
Answer: Its Cmax is 603 ng/mL.

Question: And the AUC [3]?
Answer: The AUC was 7040 ng·h/mL.

Question: For `Cc1cccc(C)c1OCC(=O)N[C@@H](Cc1ccccc1)[C@H](OC(=O)CCC(=O)NCc1ccncc1)C(=O)N1CSC(C)(C)[C@H]1C(=O)NC(C)(C)C`, which solubility [1] is on record?
Answer: The solubility was 91.5 mg/mL (≈ 123 mM).

Question: With `Cc1c(OC(=O)CCCCO[C@H]2O[C@H](CO)[C@@H](O)[C@H](O)[C@@H]2O)cccc1C(=O)N[C@@H](CSc1ccccc1)[C@@H](CN1C[C@H]2CCCC[C@H]2C[C@H]1C(=O)NC(C)(C)C)OC(=O)CCCCO[C@H]1O[C@H](CO)[C@@H](O)[C@H](O)[C@@H]1O` as the compound, how does the half-life [8] read?
Answer: The half-life was 3000 min.

Question: For `Cc1nc(COc2ccc(C[C@H](NC(=O)O[C@H]3CO[C@H]4OCC[C@H]43)[C@@H](CN(CC(C)C)S(=O)(=O)c3ccc4c(c3)OCO4)OC(=O)COC(=O)CN(C)CCc3ccccn3)cc2)cs1`, which Cmax [2] is on record?
Answer: The Cmax was 791 ng/mL.

Question: And the AUC [3]?
Answer: Its AUC is 5350 ng·h/mL.
